Results on 28 compounds are retold here after patent publication US10864196B2, “Modulators of the integrated stress pathway” (Calico Life Sciences LLC, priority 2016, dated 2020).

pEC50: −log10 of the molar value.

For orientation: pEC50 means the negative decadic logarithm of the EC50, by convention in mol/L.

For the assay, the system named is HEK293T cells carrying the ATF4 luciferase reporter. Briefly: ATF4-Luc assay (in vitro model of VWMD). Format: cell-based. The note with it: Homo sapiens, HEK-293T, 1 μg/mL tunicamycin, 7 hours, One Glo luminescence. How it is done:
In order to test exemplary compounds of the invention in a cellular context, a stable VWMD cell line was first constructed. The ATF4 reporter was prepared by fusing the human full-length ATF4 5′-UTR (NCBI Accession No. BC022088.2) in front of the firefly luciferase (FLuc) coding sequence lacking the initiator methionine as described in Sidrauski et al (eLife 2013). The construct was used to produce recombinant retroviruses using standard methods and the resulting viral supernatant was used to transduce HEK293T cells, which were then subsequently selected with puromycin to generate a stable cell line.
HEK293T cells carrying the ATF4 luciferase reporter were plated on polylysine coated 384-well plates (Greiner Bio-one) at 30,000 cells per well. Cells were treated the next day with 1 μg/mL tunicamycin and 200 nM of a compound of Formula (I) for 7 hours. Luminescence was measured using One Glo (Promega) as specified by the manufacturer. Cells were maintained in DMEM with L-glutamine supplemented with 10% heat-inactivated FBS (Gibco) and Antibiotic-Antimycotic solution (Gibco).
Table 2 below summarizes the EC50 data obtained using the ATF4-Luc assay for exemplary compounds of the invention.
For the compound `O=C(COc1ccc(Cl)cc1)NC12CC(c3nnc(COc4ccc(Cl)cc4)o3)(C1)C2` [Compound 100, 2-(4-chlorophenoxy)-N-(3-{5-[(4-chlorophenoxy)methyl]-1,3,4-oxadiazol-2-yl}bicyclo[1.1.1]pentan-1-yl)acetamide], the pEC50 is 6.60 to 7.30.

As for `O=C(COc1ccc(Cl)cc1)NC12CC(c3nc(COc4ccc(Cl)cc4)no3)(C1)C2` [Compound 101, 2-(4-chlorophenoxy)-N-(3-{3-[(4-chlorophenoxy)methyl]-1,2,4-oxadiazol-5-yl}bicyclo[1.1.1]pentan-1-yl)acetamide], the pEC50 was over 7.30.

Regarding `Cc1cccc(OCC(=O)NC23CC(c4nc(COc5ccc(Cl)cc5)no4)(C2)C3)c1` [Compound 102, N-(3-{3-[(4-chlorophenoxy)methyl]-1,2,4-oxadiazol-5-yl}bicyclo[1.1.1]pentan-1-yl)-2-(3-methylphenoxy)acetamide], the pEC50 is 5.70 to 6.00.

As to `Cc1ccc(OCC(=O)NC23CC(c4nc(COc5ccc(Cl)cc5)no4)(C2)C3)cc1` [Compound 103, N-(3-{3-[(4-chlorophenoxy)methyl]-1,2,4-oxadiazol-5-yl}bicyclo[1.1.1]pentan-1-yl)-2-(4-methylphenoxy)acetamide], the pEC50 was 6.60 to 7.30.

As to `Cc1cc(OCC(=O)NC23CC(c4nc(COc5ccc(Cl)cc5)no4)(C2)C3)ccc1Cl` [Compound 104, 2-(4-chloro-3-methylphenoxy)-N-(3-{3-[(4-chlorophenoxy)methyl]-1,2,4-oxadiazol-5-yl}bicyclo[1.1.1]pentan-1-yl)acetamide], the pEC50 is 6.00 to 6.60.

For the compound `O=C(COc1ccc(Cl)c(Cl)c1)NC12CC(c3nc(COc4ccc(Cl)cc4)no3)(C1)C2` [Compound 105, N-(3-{3-[(4-chlorophenoxy)methyl]-1,2,4-oxadiazol-5-yl}bicyclo[1.1.1]pentan-1-yl)-2-(3,4-dichlorophenoxy)acetamide], the pEC50 was over 7.30.

In the case of `O=C(COc1cccc(Cl)c1)NC12CC(c3nc(COc4ccc(Cl)cc4)no3)(C1)C2` [Compound 106, 2-(3-chlorophenoxy)-N-(3-{3-[(4-chlorophenoxy)methyl]-1,2,4-oxadiazol-5-yl}bicyclo[1.1.1]pentan-1-yl)acetamide], the pEC50 is 6.00 to 6.60.

For `O=C(COc1cccc(F)c1)NC12CC(c3nc(COc4ccc(Cl)cc4)no3)(C1)C2` [Compound 107, N-(3-{3-[(4-chlorophenoxy)methyl]-1,2,4-oxadiazol-5-yl}bicyclo[1.1.1]pentan-1-yl)-2-(3-fluorophenoxy)acetamide], the pEC50 is 6.00 to 6.60.

With `O=C(COc1ccc(F)cc1)NC12CC(c3nc(COc4ccc(Cl)cc4)no3)(C1)C2` [Compound 108, N-(3-{3-[(4-chlorophenoxy)methyl]-1,2,4-oxadiazol-5-yl}bicyclo[1.1.1]pentan-1-yl)-2-(4-fluorophenoxy)acetamide], the pEC50 is 6.00 to 6.60.

As to `O=C(COc1ccc(Cl)c(Cl)c1)NC12CC(c3nnc(COc4ccc(Cl)cc4)o3)(C1)C2` [Compound 109, N-(3-{5-[(4-chlorophenoxy)methyl]-1,3,4-oxadiazol-2-yl}bicyclo[1.1.1]pentan-1-yl)-2-(3,4-dichlorophenoxy)acetamide], the pEC50 is over 7.30.

For the compound `O=C(COc1ccc(Cl)c(F)c1)NC12CC(c3nc(COc4ccc(Cl)cc4)no3)(C1)C2` [Compound 110, 2-(4-chloro-3-fluorophenoxy)-N-(3-{3-[(4-chlorophenoxy)methyl]-1,2,4-oxadiazol-5-yl}bicyclo[1.1.1]pentan-1-yl)acetamide], the pEC50 was 6.60 to 7.30.

In the case of `O=C(COc1ccc(Cl)cc1F)NC12CC(c3nc(COc4ccc(Cl)cc4)no3)(C1)C2` [Compound 111, 2-(4-chloro-2-fluorophenoxy)-N-(3-{3-[(4-chlorophenoxy)methyl]-1,2,4-oxadiazol-5-yl}bicyclo[1.1.1]pentan-1-yl)acetamide], the pEC50 was 6.60 to 7.30.

On to `Cc1cc(COCC(=O)NC23CC(c4nc(COc5ccc(Cl)cc5)no4)(C2)C3)no1` [Compound 112, N-(3-{3-[(4-chlorophenoxy)methyl]-1,2,4-oxadiazol-5-yl}bicyclo[1.1.1]pentan-1-yl)-2-[(5-methyl-1,2-oxazol-3-yl)methoxy]acetamide], for which the pEC50 was under 5.70.

Take `O=C(COc1ccc(Cl)c(F)c1)NC12CC(c3noc(COc4ccc(Cl)cc4)n3)(C1)C2` [Compound 113, 2-(4-chloro-3-fluorophenoxy)-N-(3-{5-[(4-chlorophenoxy)methyl]-1,2,4-oxadiazol-3-yl}bicyclo[1.1.1]pentan-1-yl)acetamide]: the pEC50 was over 7.30.

Regarding `O=C(COc1ccc(C(F)(F)F)nc1)NC12CC(c3nc(COc4ccc(Cl)cc4)no3)(C1)C2` [Compound 114, N-(3-{3-[(4-chlorophenoxy)methyl]-1,2,4-oxadiazol-5-yl}bicyclo[1.1.1]pentan-1-yl)-2-{[6-(trifluoromethyl)pyridin-3-yl]oxy}acetamide], the pEC50 was 6.00 to 6.60.

For the compound `O=C(COc1ccc(Cl)c(F)c1)NC12CC(c3nnc(COc4ccc(Cl)c(F)c4)o3)(C1)C2` [Compound 115, 2-(4-chloro-3-fluorophenoxy)-N-(3-{5-[(4-chloro-3-fluorophenoxy)methyl]-1,3,4-oxadiazol-2-yl}bicyclo[1.1.1]pentan-1-yl)acetamide], the pEC50 was over 7.30.

Consider `O=C(COc1ccc(Cl)c(F)c1)NC12CC(c3nnc(Oc4ccc(C(F)(F)F)nc4)o3)(C1)C2` [Compound 116, 2-(4-chloro-3-fluorophenoxy)-N-[3-(5-{[6-(trifluoromethyl)pyridin-3-yl]oxy}-1,3,4-oxadiazol-2-yl)bicyclo[1.1.1]pentan-1-yl]acetamide], for which the negative-log EC50 (pEC50) is 6.60 to 7.30.

As to `O=C(COc1ccc(Cl)c(F)c1)NC12CC(c3nnc(Oc4cncc(C(F)(F)F)c4)o3)(C1)C2` [Compound 117, 2-(4-chloro-3-fluorophenoxy)-N-[3-(5-{[5-(trifluoromethyl)pyridin-3-yl]oxy}-1,3,4-oxadiazol-2-yl)bicyclo[1.1.1]pentan-1-yl]acetamide], the pEC50 is 6.60 to 7.30.

In the case of `Cc1cc(Oc2nnc(C34CC(NC(=O)COc5ccc(Cl)c(F)c5)(C3)C4)o2)cnc1C#N` [Compound 118, 2-(4-chloro-3-fluorophenoxy)-N-(3-{5-[(6-cyano-5-methylpyridin-3-yl)oxy]-1,3,4-oxadiazol-2-yl}bicyclo[1.1.1]pentan-1-yl)acetamide], the pEC50 was 6.00 to 6.60.

Consider `N#Cc1ccc(Oc2nnc(C34CC(NC(=O)COc5ccc(Cl)c(F)c5)(C3)C4)o2)cn1` [Compound 119, 2-(4-chloro-3-fluorophenoxy)-N-(3-{5-[(6-cyanopyridin-3-yl)oxy]-1,3,4-oxadiazol-2-yl}bicyclo[1.1.1]pentan-1-yl)acetamide], for which the pEC50 is 6.00 to 6.60.

For `COc1ccc(Oc2nnc(C34CC(NC(=O)COc5ccc(Cl)c(F)c5)(C3)C4)o2)cn1` [Compound 120, 2-(4-chloro-3-fluorophenoxy)-N-(3-{5-[(6-methoxypyridin-3-yl)oxy]-1,3,4-oxadiazol-2-yl}bicyclo[1.1.1]pentan-1-yl)acetamide], the pEC50 was 6.60 to 7.30.

In the case of `O=C(COc1ccc(Cl)c(F)c1)NC12CC(c3nnc(Oc4ccc(C5CC5)nc4)o3)(C1)C2` [Compound 121, 2-(4-chloro-3-fluorophenoxy)-N-(3-{5-[(6-cyclopropylpyridin-3-yl)oxy]-1,3,4-oxadiazol-2-yl}bicyclo[1.1.1]pentan-1-yl)acetamide], the pEC50 is 6.60 to 7.30.

In the case of `O=C(COc1ccc(Cl)c(F)c1)NC12CC(c3nnc(COc4cncc(C(F)(F)F)c4)o3)(C1)C2` [Compound 122, 2-(4-chloro-3-fluorophenoxy)-N-{3-[5-({[5-(trifluoromethyl)pyridin-3-yl]oxy}methyl)-1,3,4-oxadiazol-2-yl]bicyclo[1.1.1]pentan-1-yl}acetamide], the pEC50 is 6.60 to 7.30.

Consider `Cc1ccc(Oc2nnc(C34CC(NC(=O)COc5ccc(Cl)c(F)c5)(C3)C4)o2)cc1` [Compound 123, 2-(4-chloro-3-fluorophenoxy)-N-{3-[5-(4-methylphenoxy)-1,3,4-oxadiazol-2-yl]bicyclo[1.1.1]pentan-1-yl}acetamide], for which the pEC50 was 6.60 to 7.30.

On to `COc1ccccc1Oc1nnc(C23CC(NC(=O)COc4ccc(Cl)c(F)c4)(C2)C3)o1` [Compound 124, 2-(4-chloro-3-fluorophenoxy)-N-{3-[5-(2-methoxyphenoxy)-1,3,4-oxadiazol-2-yl]bicyclo[1.1.1]pentan-1-yl}acetamide], for which the pEC50 was under 5.70.

On to `COc1ccc(Oc2nnc(C34CC(NC(=O)COc5ccc(Cl)c(F)c5)(C3)C4)o2)cc1` [Compound 125, 2-(4-chloro-3-fluorophenoxy)-N-{3-[5-(4-methoxyphenoxy)-1,3,4-oxadiazol-2-yl]bicyclo[1.1.1]pentan-1-yl}acetamide], for which the pEC50 is 6.00 to 6.60.

On to `O=C(COc1ccc(Cl)c(F)c1)NC12CC(c3nnc(Oc4ccc(F)cc4)o3)(C1)C2` [Compound 126, 2-(4-chloro-3-fluorophenoxy)-N-{3-[5-(4-fluorophenoxy)-1,3,4-oxadiazol-2-yl]bicyclo[1.1.1]pentan-1-yl}acetamide], for which the pEC50 is over 7.30.

For `O=C(COc1ccc(Cl)c(F)c1)NC12CC(c3nnc(Oc4ccccc4Cl)o3)(C1)C2` [Compound 127, 2-(4-chloro-3-fluorophenoxy)-N-{3-[5-(2-chlorophenoxy)-1,3,4-oxadiazol-2-yl]bicyclo[1.1.1]pentan-1-yl}acetamide], the pEC50 was 6.00 to 6.60.
